Source: PubChem BioAssay (NCI)
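The concentration for 50% growth inhibition is given as GI50. TGI marks complete inhibition of growth.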

How the values were obtained:
Experiment in all cases: growth of human tumour cells (NCI), 384-well format
[1] = test system: A549 NSCLC
[2] = test system: BT-549 breast
[3] = test system: CAKI-1 renal
[4] = test system: EKVX NSCLC
[5] = test system: HCT-116 colon
[6] = test system: K-562 leukemia
[7] = test system: MDA-MB-231 breast
[8] = test system: MDA-MB-435 melanoma
[9] = test system: NCI-H322M lung
[10] = test system: OVCAR-8 ovarian
[11] = test system: SF-268 CNS
[12] = test system: SK-MEL-28 melanoma
[13] = test system: UACC-257 melanoma

| SMILES | GI50 [1] | TGI [1] | GI50 [2] | TGI [2] | GI50 [3] | TGI [3] | GI50 [4] | TGI [4] | GI50 [5] | TGI [5] | GI50 [6] | TGI [6] | GI50 [7] | TGI [7] | GI50 [8] | TGI [8] | GI50 [9] | TGI [9] | GI50 [10] | TGI [10] | other results |
| --- | --- | --- | --- | --- | --- | --- | --- | --- | --- | --- | --- | --- | --- | --- | --- | --- | --- | --- | --- | --- | --- |
| CN1CCN(c2ccc(-c3cccc(CN4CCOCC4)c3)cc2NC(=O)c2c[nH]c(=O)cc2C(F)(F)F)CC1 | 14.4 µM | > 100000 nM | 26.5 µM | > 68500 nM | 25 µM | > 100 µM | 33.5 µM | > 100 µM | 12.7 µM | > 78200 nM | 12.3 µM | 25.3 µM | 25.6 µM | > 94000 nM | 31.7 µM | > 100000 nM | 53.3 µM | > 100000 nM | 18.3 µM | > 100000 nM | GI50 [11]: 14.7 µM; TGI [11]: > 29600 nM; GI50 [12]: 17 µM; TGI [12]: 31 µM; GI50 [13]: 15.3 µM; TGI [13]: 28.7 µM |
| c1ccc2c(NCCCN3CCN(CCCNc4c5ccccc5nc5ccccc45)CC3)c3ccccc3nc2c1 | 0.445 µM | 1930 nM | 1.2 µM | 2570 nM | 0.929 µM | 4.69 µM | 1.33 µM | 3.95 µM | 0.267 µM | 1280 nM | 1.11 µM | 3.6 µM | 0.506 µM | 2060 nM | 1.26 µM | 2540 nM | 0.277 µM | 1380 nM | 0.296 µM | 1560 nM | GI50 [11]: 0.301 µM; TGI [11]: 1190 nM; GI50 [12]: 1.82 µM; TGI [12]: 3.24 µM; GI50 [13]: 1.39 µM; TGI [13]: 2.7 µM |
